From patent publication US11911442B2, “Use of soluble pro(renin) receptor to treat metabolic disorders and related conditions” (priority 2017, dated 2024)

Experiments:
[1] = tested on: pGL3-PRR; experiment: PRR-luciferase (pGL3-PRR) reporter assay in mpkCCD cells; format: cell-based, murine; conditions: transfected mpkCCD cells, 10 μM, 24 h
Method: The effect of […] on PRR expression was tested in […] cells. These cells were grown to confluence in six-well plates. After 12-h serum deprivation, the cells were treated with vehicle or 10 μM TO901317 for 24 h and then were harvested for analysis of PRR expression and sPRR release. In a separate experiment, […] cells at 50% density were transiently transfected with a construct containing the luciferase gene under the control of the 2,016-bp 5' flanking region of the PRR gene. Upon confluence, the transfected cells were treated for 24 h with vehicle or 10 μM TO901317 and then were harvested for analysis of luciferase activity. Genomic DNA was extracted from rat tail using a Tissue DNA kit ([…]-01; Promega). A 2,016-bp fragment of the 5' flanking region of the PRR gene (GenBank accession no. NM_001007091; 1,941±75 bp) was amplified from the rat genomic DNA by PCR and subcloned to the pGL3-Basic reporter vector (Promega) using NheI and BgIII restriction sites; this construct was termed “pGL3-PRR.” A 2,084-bp fragment of the 5' flanking region of the AQP2 gene (GenBank accession no. […] Qiagen). […] The vehicle-treated group served as a control. The luciferase activities were measured using a luciferase assay system (Promega), and luminescence was detected by using an illuminometer (BMG FLUOstar OPTIMA).

[2] = tested on: PRR; experiment: PRR protein expression and sPRR release in mpkCCD cells; format: cell-based, murine; conditions: 10 μM, 24 h
Method: The effect of […] on PRR expression was tested in […] cells. These cells were grown to confluence in six-well plates. After 12-h serum deprivation, the cells were treated with vehicle or 10 μM TO901317 for 24 h and then were harvested for analysis of PRR expression and sPRR release. In a separate experiment, […] cells at 50% density were transiently transfected with a construct containing the luciferase gene under the control of the 2,016-bp 5' flanking region of the PRR gene. Upon confluence, the transfected cells were treated for 24 h with vehicle or 10 μM TO901317 and then were harvested for analysis of luciferase activity. Urinary or medium sPRR was determined using a commercially sPRR enzyme immunoassay (EIA) kit (catalog no. JP27782; Immuno-Biological Laboratories) according to the manufacturer's instructions. Renal tissues were lysed and subsequently sonicated. Protein concentrations were determined using Coomassie reagent. Forty micrograms of protein from each sample were denatured in boiling water, separated by SDS/PAGE, and transferred onto nitrocellulose membranes. Blots were blocked 1 h with 5% nonfat dry milk in Tris-buffered saline (TBS), followed by overnight incubation with primary antibody. […] The blots were quantitated by using Image-Pro Plus (Media Cybernetics). […]

[3] = tested on: C57BL6 mice; experiment: TO901317-induced diabetes insipidus in C57/BL6 mice; format: in vivo, mouse
Method: FIGS. 9A-9I show an initial characterization of diuretic and PRR-inhibitory actions of TO901317 in vivo and in vitro. […] The mice receiving vehicle treatment served as a control. At the end of experiment, 24-h urine collection was performed, followed by analysis of urinary sPRR excretion by ELISA and renal PRR expression by immunoblotting. (A) Urine output (n=30 mice per group). (B) Urinary osmolality (n=15 mice per group). (C) Immunoblotting analysis of renal PRR expression (n=15 mice per group). (D) Densitometric analysis of the immunoblot in C. (E) ELISA analysis of urinary sPRR (n=8 mice per group). (F-I) The effect of TO901317 on PRR expression in cultured CD cells. mpkCCD cells were exposed to vehicle or 10 μM TO901317 for 24 h. The cell lysates were subjected to immunoblotting analysis of PRR protein expression, and the medium was assayed for sPRR concentration by using ELISA and normalized by protein content. In a separate experiment, the cells were transfected with a PRR-luciferase construct, allowed to grown to confluence, and then were treated with vehicle or 10 μM TO901317 for 24 h. (F) Immunoblotting analysis of PRR (n=15 per group). (G) Densitometric analysis of the immunoblot in […]. (H) ELISA analysis of medium sPRR (n=10 per group). (I) The luciferase assay (n=5 per group).
(A) Urine output (n=8 mice per group). (B) Water intake (n=8 mice per group). (C) Water balance (n=8 mice per group). (D) Urinary osmolality (n=8 mice per group). (E) Het (n=8 mice per group).
AQP2 expression was analyzed by immunoblotting and immunostaining. Urinary renin activity was determined by measuring AngI generation, and urinary prorenin/renin concentration was determined by ELISA. (A) Immunoblotting analysis of AQP2 expression (n=15 mice per group). (B) Densitometric analysis of the immunoblots in A. (C) Urinary renin activity (n=8 mice per group). (D) Urinary prorenin/renin excretion (n=8 mice per group). (E) Schematic illustration of the mechanism by which the LXR agonist TO091317 (TO) suppresses PRR transcription and induces DI. LXRs bound to TO091317 function as a […] repressor for the PRR gene, leading to a reduced PRR/sPRR level that decreases AQP2 expression, ultimately causing DI.
Besides their well-recognized role in regulating lipid and glucose metabolism, LXRs are potential regulators of the RAS and fluid balance. […] In the initial experiment, the effects of the LXR agonist TO901317 on fluid homeostasis and on renal PRR and urinary renin levels were examined in mice. A 7-d treatment with TO901317 in C57BL6 mice reduced body weight (32.36±0.63 vs. 28.61±0.36 g, P<0.05) and food intake (4.08±0.19 vs. 3.54±0.15 g, P<0.05), although to a lesser extent. […] The expression of renal PRR protein and the excretion of urinary sPRR were examined by immunoblotting and ELISA, respectively.
In the subsequent experiment, a more detailed analysis of TO901317-induced DI was performed and the causal role of suppressed renal PRR was further examined in this phenomenon. This experiment comprised three groups: control, TO901317-treated, and TO901317+sPRRHis-treated mice. […] Of note, water balance was determined by subtracting urine volume from water intake. AQP2, a major water channel on the apical membrane of the CD, plays a key role in determining urine-concentrating capability. […] ELISA was also performed to determine the prorenin/renin concentration in the urine. Although urinary prorenin/renin excretion was suppressed by TO901317, it was unaffected by sPRRHis (FIG. 11D). […] FIG. 11E provides a schematic illustration of the mechanism by which TO901317 induces DI. Upon binding to TO901317, LXRs function as a transcriptional repressor to inactivate PRR transcription. The reduced PRR/sPRR levels down-regulate AQP2 expression, leading to DI.
Male 10- to 12-wk-old SD rats and C57BL6 mice were purchased from Charles River Laboratories and the Jackson Laboratory, respectively. All animals […] 50 mg kg body weight-1·d-1. […]

## O=S(=O)(c1ccccc1)N(CC(F)(F)F)c1ccc(C(O)(C(F)(F)F)C(F)(F)F)cc1 [TO901317]
[1]
  suppression of luciferase activity (pGL3-PRR): 76%
[2]; ELISA
  reduction of medium sPRR: 60%
[2]; immunoblotting
  reduction of PRR protein expression: 85%
[3]; C57/BL6 mice, TO901317 alone, 7 d
  urine output, water intake, water balance, urinary osmolality, Hct: polyuria, polydipsia, decreased water balance, hypoosmotic urine, and plasma volume contraction
[3]; C57BL6 mice, 7-d treatment
  urinary osmolality: hypoosmotic urine
  urine output: severe polyuria
[3]; C57BL6 mice, 7-d treatment, ELISA
  urinary sPRR excretion: suppressed consistently
[3]; C57BL6 mice, 7-d treatment, immunoblotting
  renal PRR expression: suppressed consistently
[3]; C57BL6 mice, 7-d treatment, control 4.08±0.19, P<0.05
  food intake: 3.54 ± 0.15 g
[3]; C57BL6 mice, 7-d treatment, control 32.36±0.63, P<0.05
  body weight: 28.61 ± 0.36 g
[3]; TO901317 alone, 7 d
  urinary renin activity (generation of AngI): suppressed
[3]; TO901317 alone, 7 d, ELISA
  urinary prorenin/renin excretion: suppressed
[3]; TO901317 alone, 7 d, immunoblotting
  renal AQP2 expression: significantly reduced
